Columns and labels:
HRV1B Rhinovirus = assay: Conditioned media of treated THP-1 macrophages incubated with HRV1B Rhinovirus; measurable live virus titrated; format: cell-based; settings: then incubated with HRV1B, compared with control (distilled water), n=3
Procedure: With reference to FIG. 1, an experiment was carried out to treat leukocytes (the human monocytic THP-1 macrophage cell line differentiated into macrophages) with sodium butyrate, Vitamin D, or with a combination of sodium butyrate and Vitamin D.
The leukocyte cells were incubated for a period of time to allow them to release proteins into the surrounding cell culture media (referred to as ‘conditioned media’). The conditioned media was then incubated with HRV1B Rhinovirus. The leukocyte cells were incubated with a solution comprising 0.5 mM sodium butyrate, a solution comprising 0.5 mM Vitamin D, and with a solution comprising both 0.5 mM sodium butyrate and 0.5 mM Vitamin D.
The data shown is an average of n=3 independent biological replicates (the titration is an average of ten fold reductions quantified over the three replicates).

influenza infection = settings: exogenous LL-37, mouse models of influenza infection; Barlow et al 2011; cited from earlier work
Rhinovirus = settings: exogenous LL-37, cell models; Casanova et al 2020; cited from earlier work

For `CCCC(=O)[O-].[Na+]` [sodium butyrate], which “reduction in measurable live virus” value (HRV1B Rhinovirus; conditioned media of THP-1 macrophages incubated with 0.5 mM sodium butyrate) is on record?
The value was 75-80%.

With “LL-37: a human member of the cathelicidin family (LLGDFFRKSKEKIGKEFKRIVQRIKDFLRNLVPRTES; Antibacterial peptide LL-37; UniProt P49913 134-170, looked up)” as the compound, how does the inflammation (influenza infection) read?
The inflammation was “decrease inflammation”.

What about the survival rates (influenza infection) of the same compound?
Its survival rates is “enhanced survival rates”.

And the “Rhinovirus induced inflammatory cytokine release” value (Rhinovirus)?
Its value is “reduce Rhinovirus induced inflammatory cytokine release”.

Which “reduction in measureable live virus (in words)” value (HRV1B Rhinovirus; conditioned media of THP-1 macrophages incubated with 0.5 mM Vitamin D, or 0.5 mM sodium butyrate and 0.5 mM Vitamin D) does the source give for Vitamin D here?
The value was “significant reduction”.

— patent publication US20230190687A1, “SODIUM BUTYRATE FOR USE IN THE PREVENTION OR TREATMENT OF RHINOVIRUS INFECTION” (priority 2020, published 2023)
